Test results as given in ChEMBL document CHEMBL4680144, “N-thiadiazole-4-hydroxy-2-quinolone-3-carboxamides bearing heteroaromatic rings as novel antibacterial agents: Design, synthesis, biological evaluation and target identification” (Eur J Med Chem, 2020).
pIC50: −log10 of the molar value. Converted amounts (≈) assume the structure as drawn.

test system: Staphylococcus aureus; assay: Antibacterial activity against wild type methicillin-sensitive Staphylococcus aureus ATCC 29213 assessed as inhibition of bacterial growth incubated for 18 to 24 hrs by broth microdilution method; format: functional; details: time 18-24 hrs

MIC [µg/mL] | Structure (SMILES)
12.5 (≈ 30.5 µM) | CCn1c(=O)c(C(=O)Nc2nnc(-c3ccccc3F)s2)c(O)c2ccccc21
6.25 (≈ 20.7 µM) | Cn1c(=O)c(C(=O)Nc2nncs2)c(O)c2ccccc21
3.12 (≈ 7.39 µM) | CCn1c(=O)c(C(=O)Nc2nnc(-c3ccc(OC)cc3)s2)c(O)c2ccccc21
6.25 (≈ 16.3 µM) | CCn1c(=O)c(C(=O)Nc2nnc(C3CCCC3)s2)c(O)c2ccccc21
12.5 (≈ 26.5 µM) | CCn1c(=O)c(C(=O)Nc2nnc(-c3ccc(Br)cc3)s2)c(O)c2ccccc21
12.5 (≈ 28.6 µM) | CCOc1ccccc1-c1nnc(NC(=O)c2c(O)c3ccccc3n(CC)c2=O)s1
25 (≈ 60.9 µM) | CCn1c(=O)c(C(=O)Nc2nnc(-c3ccc(F)cc3)s2)c(O)c2ccccc21
12.5 (≈ 29.3 µM) | CCn1c(=O)c(C(=O)Nc2nnc(-c3ccc(Cl)cc3)s2)c(O)c2ccccc21
50 (≈ 123 µM) | CCn1c(=O)c(C(=O)Nc2nnc(-c3ccccc3C)s2)c(O)c2ccccc21

test system: not listed separately; assay: Inhibition of Staphylococcus aureus Gyrase B using linear pBR322 DNA as substrate incubated for 30 mins in presence of ATP by ADP-Glo assay; details: not given

pIC50 | Structure (SMILES)
6.00 | CCn1c(=O)c(C(=O)Nc2nnc(-c3ccccc3F)s2)c(O)c2ccccc21
6.72 | Cn1c(=O)c(C(=O)Nc2nncs2)c(O)c2ccccc21
5.94 | CCn1c(=O)c(C(=O)Nc2nnc(-c3ccc(OC)cc3)s2)c(O)c2ccccc21
6.26 | CCn1c(=O)c(C(=O)Nc2nnc(C3CCCC3)s2)c(O)c2ccccc21
5.66 | CCn1c(=O)c(C(=O)Nc2nnc(-c3ccc(Br)cc3)s2)c(O)c2ccccc21
5.63 | CCOc1ccccc1-c1nnc(NC(=O)c2c(O)c3ccccc3n(CC)c2=O)s1
5.64 | CCn1c(=O)c(C(=O)Nc2nnc(-c3ccc(F)cc3)s2)c(O)c2ccccc21
5.84 | CCn1c(=O)c(C(=O)Nc2nnc(-c3ccc(Cl)cc3)s2)c(O)c2ccccc21
5.50 | CCn1c(=O)c(C(=O)Nc2nnc(-c3ccccc3C)s2)c(O)c2ccccc21
